Reference: article PMC8844914, “Structural Basis for the Peptidoglycan-Editing Activity of YfiH” (mBio, 2022)

Columns and labels:
MurD = biological target: T1, MurD (Escherichia coli, UniProt P14900); assay: ligase reaction, product by HPLC and ESI-MS; assay type: biochemical; settings: 2 mM D-glutamate, 5 mM ATP, 10 mM MgCl2, pH 8.0, 37 C; preparative synthesis with MurC and MurD
T1 construct: C-terminal 6xHis tag (pET21a), expressed in E. coli BL21(DE3)
T1 sequence (P14900 2-438): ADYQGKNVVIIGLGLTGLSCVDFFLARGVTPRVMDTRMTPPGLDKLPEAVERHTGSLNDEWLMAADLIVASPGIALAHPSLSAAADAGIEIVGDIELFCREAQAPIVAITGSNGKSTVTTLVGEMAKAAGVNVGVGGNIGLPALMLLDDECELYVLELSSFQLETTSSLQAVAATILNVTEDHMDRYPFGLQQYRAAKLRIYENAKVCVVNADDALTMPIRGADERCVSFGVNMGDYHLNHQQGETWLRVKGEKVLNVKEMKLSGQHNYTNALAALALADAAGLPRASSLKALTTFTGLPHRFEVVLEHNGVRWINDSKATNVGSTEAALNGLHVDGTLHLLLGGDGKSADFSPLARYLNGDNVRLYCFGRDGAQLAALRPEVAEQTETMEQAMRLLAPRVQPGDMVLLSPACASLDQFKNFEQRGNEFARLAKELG

YfiH (PgeF) [1] = biological target: T2, YfiH (PgeF) (Escherichia coli, UniProt P33644, C107A); assay: X-ray crystal structure, […] A; assay type: binding; settings: soaked into YfiH-C107A crystals; pH 5.4; active-site groove
T2 construct: full length, C-terminal 6xHis tag (pET21a), expressed in E. coli BL21(DE3); Met1 not seen in crystal
T2 sequence (P33644 whole entry C107A): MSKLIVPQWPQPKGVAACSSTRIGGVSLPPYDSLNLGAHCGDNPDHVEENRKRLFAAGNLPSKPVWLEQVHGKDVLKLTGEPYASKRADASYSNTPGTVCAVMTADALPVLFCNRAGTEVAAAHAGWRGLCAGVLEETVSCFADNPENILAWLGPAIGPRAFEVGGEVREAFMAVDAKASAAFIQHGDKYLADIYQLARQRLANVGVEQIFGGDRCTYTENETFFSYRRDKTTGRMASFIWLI

MurC = biological target: T3, MurC (Escherichia coli, UniProt P17952); assay: ligase reaction, product UDP-MurNAc-Gly by mass spectrometry; assay type: biochemical; settings: 18 mM Gly, 1 mM UDP-MurNAc, 5 mM ATP, 20 uM MurC, 24 h; low yield
T3 construct: C-terminal 6xHis tag (pET21a), expressed in E. coli BL21(DE3)
T3 sequence (P17952 whole entry): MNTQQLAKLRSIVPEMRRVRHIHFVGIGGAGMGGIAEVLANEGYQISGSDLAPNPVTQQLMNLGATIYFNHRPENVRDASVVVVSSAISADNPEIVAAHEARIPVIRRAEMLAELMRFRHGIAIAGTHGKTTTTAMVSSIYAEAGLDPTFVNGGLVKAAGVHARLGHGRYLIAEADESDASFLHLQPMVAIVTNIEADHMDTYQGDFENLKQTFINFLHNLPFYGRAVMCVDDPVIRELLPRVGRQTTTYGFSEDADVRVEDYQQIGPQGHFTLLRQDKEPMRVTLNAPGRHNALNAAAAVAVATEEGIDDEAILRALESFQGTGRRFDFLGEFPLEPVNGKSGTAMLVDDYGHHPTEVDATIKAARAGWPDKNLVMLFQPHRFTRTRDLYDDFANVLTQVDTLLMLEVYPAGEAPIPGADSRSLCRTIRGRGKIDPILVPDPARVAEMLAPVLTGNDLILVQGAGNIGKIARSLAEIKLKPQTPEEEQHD

YfiH (PgeF) [2] = biological target: T2, YfiH (PgeF); assay: X-ray crystal structure, […] A; assay type: binding; settings: endogenous ligand copurified from E. coli; pH 5.4; active-site groove

With `CC(=O)N[C@H]1[C@@H](OP(=O)(O)OP(=O)(O)OC[C@H]2O[C@@H](n3ccc(=O)[nH]c3=O)[C@H](O)[C@@H]2O)O[C@H](CO)[C@@H](O)[C@@H]1O[C@H](C)C(=O)N[C@@H](C)C(=O)O` [UMA, UDP–MurNAc–L-Ala] the “ligase reaction, product by HPLC and ESI-MS” value (MurD) was “we further synthesized UDP–MurNAc–L-Ala–D-Glu (UMAE)”.

In the case of `CC(=O)N[C@H]1[C@@H](OP(=O)(O)OP(=O)(O)OC[C@H]2O[C@@H](n3ccc(=O)[nH]c3=O)[C@H](O)[C@@H]2O)O[C@H](CO)[C@@H](O)[C@@H]1O[C@H](C)C(=O)N[C@@H](CO)C(=O)O` [UMS, UDP–MurNAc–L-Ser], the “ligase reaction, product by HPLC and ESI-MS” value (MurD) is reported as “UDP–MurNAc–L-Ser–D-Glu (UMSE) with recombinant MurD” and the “X-ray crystal structure, 1.86 A” value (YfiH (PgeF) [1]) is reported as “we obtained the crystals of YfiH bound to UDP–MurNAc–L-Ser”.

In the case of `NCC(=O)O` [Gly, glycine], the “ligase reaction, product UDP-MurNAc-Gly by mass spectrometry” value (MurC) is reported as “enzymatic synthesis with MurC, using glycine as a substrate”.

With `CC(=O)N[C@H]1[C@@H](OP(=O)(O)OP(=O)(O)OC[C@H]2O[C@@H](n3ccc(=O)[nH]c3=O)[C@H](O)[C@@H]2O)O[C@H](CO)[C@@H](O)[C@@H]1O[C@H](C)C(=O)O` [UM, UDP-MurNAc] the “X-ray crystal structure, 1.47 A” value (YfiH (PgeF) [2]) was “This compound was unambiguously identified as UDP-MurNAc based on its high-resolution map”.
